target: α-synuclein fibrils (Homo sapiens, UniProt P37840); assay: Competitive radioligand binding with [^3H]BF2846 on α-synuclein fibrils; settings: [^3H]BF2846, α-synuclein fibrils; mean + Sd, n = 3; read-out: α-syn Ki
Description: Competition binding assays were performed with [^3H]BF2846 and [^3H]PIB to measure affinity to Asyn and Aβ. […]

Compared with `CCOC(=O)c1cnc(N2C3CCC2CN(c2ccccn2)C3)nc1N` [Compound 1, Ethyl 4-amino-2-(3-(pyridin-2-yl)-3,8-diazabicyclo[3.2.1]octan-8-yl)pyrimidine-5-carboxylate], `CCOC(=O)c1cnc(N2CC3CCC(C2)N3c2ccccn2)nc1N` [Compound 4, Ethyl 4-amino-2-(8-(pyridin-2-yl)-3,8-diazabicyclo[3.2.1]octan-3-yl)pyrimidine-5-carboxylate] is 2.1-fold lower in Ki: 11.6 nM for the first, 5.5 nM for the second.

First: CCOC(=O)c1cnc(N2C3CCC2CN(c2cc4ccccc4cn2)C3)nc1N [Compound 2, Ethyl 4-amino-2-(3-(isoquinolin-3-yl)-3,8-diazabicyclo[3.2.1]octan-8-yl)pyrimidine-5-carboxylate]
Second: CCOC(=O)c1cnc(N2CC3CCC(C2)N3c2cc3ccccc3cn2)nc1N [Compound 5, Ethyl 4-amino-2-(8-(isoquinolin-3-yl)-3,8-diazabicyclo[3.2.1]octan-3-yl)pyrimidine-5-carboxylate]
The Ki of the first is 2.2-fold lower: 26.3 nM for the first, 58.5 nM for the second. The first binds more tightly here.

Going from `CCOC(=O)c1cnc(N2C3CCC2CN(c2cnc4ccccc4c2)C3)nc1N` [Compound 3, Ethyl 4-amino-2-(3-(quinolin-3-yl)-3,8-diazabicyclo[3.2.1]octan-8-yl)pyrimidine-5-carboxylate] to `CCOC(=O)c1cnc(N2CC3CCC(C2)N3c2cnc3ccccc3c2)nc1N` [Compound 6, Ethyl 4-amino-2-(8-(quinolin-3-yl)-3,8-diazabicyclo[3.2.1]octan-3-yl)pyrimidine-5-carboxylate], the Ki falls from 23.3 nM to 9.9 nM (2.4-fold).

Going from `CCOC(=O)c1cnc(N2CCCN(c3ccccn3)CC2)nc1N` [Compound 7, Ethyl 4-amino-2-(4-(pyridin-2-yl)-1,4-diazepan-1-yl)pyrimidine-5-carboxylate] to `CCOC(=O)c1cnc(N2CCN(c3ccccn3)CC2)nc1N` [Compound 9, Ethyl 4-amino-2-(4-(pyridin-2-yl)piperazin-1-yl)pyrimidine-5-carboxylate], the Ki falls from 8.9 nM to 4 nM (2.2-fold). The second binds more tightly here.

Compared with `CCOC(=O)c1cnc(N2CCCN(c3cnc4ccccc4c3)CC2)nc1N` [Compound 8, Ethyl 4-amino-2-(4-(quinolin-3-yl)-1,4-diazepan-1-yl)pyrimidine-5-carboxylate], `CCOC(=O)c1cnc(N2CCN(c3cnc4ccccc4c3)CC2)nc1N` [Compound 14, Ethyl 4-amino-2-(4-(quinolin-3-yl)piperazin-1-yl)pyrimidine-5-carboxylate] is 4.9-fold lower in Ki: 15.2 nM for the first, 3.1 nM for the second.

Compared with `CCOC(=O)c1cnc(N2CCN(c3nc4ccccc4o3)CC2)nc1N` [Compound 10, Ethyl 4-amino-2-(4-(benzo[d]oxazol-2-yl)piperazin-1-yl)pyrimidine-5-carboxylate], `CCOC(=O)c1cnc(N2CCN(c3nc4ccccc4s3)CC2)nc1N` [Compound 11, Ethyl 4-amino-2-(4-(benzo[d]thiazol-2-yl)piperazin-1-yl)pyrimidine-5-carboxylate] is 5.2-fold higher in Ki: 2.5 nM for the first, 12.9 nM for the second. The first binds more tightly here.

First: CCOC(=O)c1cnc(N2C3CCC2CN(c2nc4ccccc4s2)C3)nc1N [Compound 12, Ethyl 4-amino-2-(3-(benzo[d]thiazol-2-yl)-3,8-diazabicyclo[3.2.1]octan-8-yl)pyrimidine-5-carboxylate]
Second: CCOC(=O)c1cnc(N2CCN(c3ccc4ccccc4n3)CC2)nc1N [Compound 15, Ethyl 4-amino-2-(4-(quinolin-2-yl)piperazin-1-yl)pyrimidine-5-carboxylate]
The Ki of the first is 2.2-fold higher: 23.4 nM for the first, 10.8 nM for the second.

Going from `CCOC(=O)c1cnc(N2CCN(c3cc4ccccc4cn3)CC2)nc1N` [Compound 13, Ethyl 4-amino-2-(4-(isoquinolin-3-yl)piperazin-1-yl)pyrimidine-5-carboxylate] to `CCOC(=O)c1cnc(N2CCN(c3cnc4ccccc4n3)CC2)nc1N` [Compound 16, Ethyl 4-amino-2-(4-(quinoxalin-2-yl)piperazin-1-yl)pyrimidine-5-carboxylate], the Ki falls from 12.1 nM to 2.4 nM (5-fold).

`CCOC(=O)c1cnc(N2CCN(c3ccc(OC)cc3)CC2)nc1N` [Compound 17, Ethyl 4-amino-2-(4-(4-methoxyphenyl)piperazin-1-yl)pyrimidine-5-carboxylate] gave a Ki of 12.8 nM.
